Results as given in patent publication US20230312542A1, “HYDROXYPYRROLIDINE DERIVATIVE AND MEDICINAL APPLICATION THEREOF” (MITSUBISHI TANABE PHARMA CORPORATION, priority 2020, published 2023).

Target: VHL (co-expressed with Elongin B and Elongin C) (Homo sapiens (Human), UniProt P40337)
Test: Measurement of intermolecular interactions using surface plasmon resonance (Biacore T200), Kd value for VHL
Format: binding
Details: SPR, immobilized VHL, 25° C.; read-out: Kd
Description: As the device, Biacore T200 (manufactured by GE Healthcare) was used. VHL was obtained by co-expressing Elongin B and Elongin C with a Twin-Strep-tag added to the N-terminus. As the sensor chip, Sensor chip CM5 (manufactured by GE Healthcare) was used. First, Strep-Tactin XT (manufactured by GE Healthcare) was immobilized on the sensor chip by amine coupling. Thereafter, VHL was immobilized using the affinity of Strep-Tactin XT and Twin-Strep-tag, and VHL was further immobilized on the sensor chip by amine coupling.
As the running buffer, a mixed solution of 20 mM HEPES pH 7.5, 150 mM NaCl, 1 mM TCEP, 0.005% Tween 20, and 2% DMSO was used. […] The Contact time and the Dissociation time were determined according to the properties of the compounds. For many compounds, 60 seconds and 120 seconds were respectively used.

Chain of VHL (co-expressed with Elongin B and Elongin C) (P40337 whole entry, looked up): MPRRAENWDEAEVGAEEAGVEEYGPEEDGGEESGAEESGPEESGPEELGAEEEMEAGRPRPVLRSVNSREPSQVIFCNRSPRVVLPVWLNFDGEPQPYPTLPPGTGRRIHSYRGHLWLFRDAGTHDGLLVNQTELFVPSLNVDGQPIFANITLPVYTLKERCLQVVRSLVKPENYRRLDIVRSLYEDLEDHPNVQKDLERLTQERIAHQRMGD
Chain of VHL (co-expressed with Elongin B and Elongin C) (Q15370 whole entry partner, looked up): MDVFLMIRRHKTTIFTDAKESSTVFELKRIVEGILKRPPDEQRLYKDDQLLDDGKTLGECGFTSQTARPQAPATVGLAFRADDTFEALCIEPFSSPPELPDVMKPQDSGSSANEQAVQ
Chain of VHL (co-expressed with Elongin B and Elongin C) (Q15369 whole entry partner, looked up): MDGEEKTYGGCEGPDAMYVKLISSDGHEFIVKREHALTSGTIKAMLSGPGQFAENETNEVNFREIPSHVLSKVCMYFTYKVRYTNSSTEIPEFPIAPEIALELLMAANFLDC

| SMILES | Kd [nM] |
| --- | --- |
| COc1cc(C(C(=O)N2C[C@H](O)C[C@H]2c2nc(C(=O)N3CCC(Oc4ccccc4)CC3)c[nH]2)C(C)C)on1 (stereo partly drawn) [Example 1, 1-[(2S,4R)-4-hydroxy-2-[4-(4-phenoxypiperidine-1-carbonyl)-1H-imidazol-2-yl]pyrrolidin-1-yl]-2-(3-methoxy-1,2-oxazol-5-yl)-3-methylbutan-1-one] | 1000 to 10000 |
| CC(=O)N[C@H](C(=O)N1C[C@H](O)C[C@H]1c1ncc(-c2cccc(-c3scnc3C)c2)[nH]1)C(C)(C)C [Example 6, N-[(2S)-1-[(2S,4R)-4-hydroxy-2-[5-[3-(4-methyl-1,3-thiazol-5-yl)phenyl]-1H-imidazol-2-yl]pyrrolidin-1-yl]-3,3-dimethyl-1-oxobutan-2-yl]acetamide] | 1000 to 10000 |
| CC(=O)N[C@H](C(=O)N1C[C@H](O)C[C@H]1c1nc(C(=O)N(C)Cc2ccccc2Cl)c[nH]1)C(C)(C)C [Example 14, 2-[(2S,4R)-1-[(2S)-2-acetamido-3,3-dimethylbutanoyl]-4-hydroxypyrrolidin-2-yl]-N-[(2-chlorophenyl)methyl]-N-methyl-1H-imidazole-4-carboxamide] | 1000 to 10000 |
| CC(=O)N[C@H](C(=O)N1C[C@H](O)C[C@H]1c1nc(C(=O)N(C)Cc2cccc(Cl)c2)c[nH]1)C(C)(C)C [Example 15, 2-[(2S,4R)-1-[(2S)-2-acetamido-3,3-dimethylbutanoyl]-4-hydroxypyrrolidin-2-yl]-N-[(3-chlorophenyl)methyl]-N-methyl-1H-imidazole-4-carboxamide] | 1000 to 10000 |
| CC(=O)N[C@H](C(=O)N1C[C@H](O)C[C@H]1c1nc(C(=O)N(C)Cc2ccc(Cl)cc2)c[nH]1)C(C)(C)C [Example 16, 2-[(2S,4R)-1-[(2S)-2-acetamido-3,3-dimethylbutanoyl]-4-hydroxypyrrolidin-2-yl)-N-[(4-chlorophenyl)methyl]-N-methyl-1H-imidazole-4-carboxamide] | 1000 to 10000 |
| CC(=O)N[C@H](C(=O)N1C[C@H](O)C[C@H]1c1nc(C(=O)N(C)Cc2ccccc2F)c[nH]1)C(C)(C)C [Example 17, 2-[(2S,4R)-1-[(2S)-2-acetamido-3,3-dimethylbutanoyl]-4-hydroxypyrrolidin-2-yl]-N-[(2-fluorophenyl)methyl]-N-methyl-1H-imidazole-4-carboxamide] | 1000 to 10000 |
| CC(=O)N[C@H](C(=O)N1C[C@H](O)C[C@H]1c1nc(C(=O)N(C)Cc2cccc(F)c2)c[nH]1)C(C)(C)C [Example 18, 2-[(2S,4R)-1-[(2S)-2-acetamido-3,3-dimethylbutanoyl]-4-hydroxypyrrolidin-2-yl]-N-[(3-fluorophenyl)methyl]-N-methyl-1H-imidazole-4-carboxamide] | 1000 to 10000 |
| CC(=O)N[C@H](C(=O)N1C[C@H](O)C[C@H]1c1nc(C(=O)N(C)Cc2ccc(F)cc2)c[nH]1)C(C)(C)C [Example 19, 2-[(2S,4R)-1-[(2S)-2-acetamido-3,3-dimethylbutanoyl]-4-hydroxypyrrolidin-2-yl]-N-[(4-fluorophenyl)methyl]-N-methyl-1H-imidazole-4-carboxamide] | 1000 to 10000 |
| CC(=O)N[C@H](C(=O)N1C[C@H](O)C[C@H]1c1nc(C(=O)N(C)Cc2ccccc2C(F)(F)F)c[nH]1)C(C)(C)C [Example 20, 2-[(2S,4R)-1-[(2S)-2-acetamido-3,3-dimethylbutanoyl]-4-hydroxypyrrolidin-2-yl]-N-methyl-N-[[2-(trifluoromethyl)phenyl]methyl]-1H-imidazole-4-carboxamide] | 1000 to 10000 |
| CC(=O)N[C@H](C(=O)N1C[C@H](O)C[C@H]1c1nc(C(=O)N(C)Cc2cccc(C(F)(F)F)c2)c[nH]1)C(C)(C)C [Example 21, 2-[(2S,4R)-1-[(2S)-2-acetamido-3,3-dimethylbutanoyl]-4-hydroxypyrrolidin-2-yl]-N-methyl-N-[[3-(trifluoromethyl)phenyl]methyl]-1H-imidazole-4-carboxamide] | 1000 to 10000 |
| CC(=O)N[C@H](C(=O)N1C[C@H](O)C[C@H]1c1nc(C(=O)N(C)Cc2ccc(C(F)(F)F)cc2)c[nH]1)C(C)(C)C [Example 22, 2-[(2S,4R)-1-[(2S)-2-acetamido-3,3-dimethylbutanoyl]-4-hydroxypyrrolidin-2-yl]-N-methyl-N-[[4-(trifluoromethyl)phenyl]methyl]-1H-imidazole-4-carboxamide] | 1000 to 10000 |
| COc1cccc(CN(C)C(=O)c2c[nH]c([C@@H]3C[C@@H](O)CN3C(=O)[C@@H](NC(C)=O)C(C)(C)C)n2)c1 [Example 24, 2-[(2S,4R)-1-[(2S)-2-acetamido-3,3-dimethylbutanoyl]-4-hydroxypyrrolidin-2-yl]-N-[(3-methoxyphenyl)methyl]-N-methyl-1H-imidazole-4-carboxamide] | 1000 to 10000 |
| COc1ccc(CN(C)C(=O)c2c[nH]c([C@@H]3C[C@@H](O)CN3C(=O)[C@@H](NC(C)=O)C(C)(C)C)n2)cc1 [Example 25, 2-[(2S,4R)-1-[(2S)-2-acetamido-3,3-dimethylbutanoyl]-4-hydroxypyrrolidin-2-yl]-N-[(4-methoxyphenyl)methyl]-N-methyl-1H-imidazole-4-carboxamide] | 1000 to 10000 |
| CC(=O)N[C@H](C(=O)N1C[C@H](O)C[C@H]1c1nc(C(=O)N(C)Cc2cccc(-c3scnc3C)c2)c[nH]1)C(C)(C)C [Example 29, 2-[(2S,4R)-1-[(2S)-2-acetamido-3,3-dimethylbutanoyl]-4-hydroxypyrrolidin-2-yl]-N-methyl-N-[[3-(4-methyl-1,3-thiazol-5-yl)phenyl]methyl]-1H-imidazole-4-carboxamide] | 1000 to 10000 |
| CC(=O)N[C@H](C(=O)N1C[C@H](O)C[C@H]1c1nc(C(=O)N(C)Cc2ccc3ccccc3c2)c[nH]1)C(C)(C)C [Example 30, 2-[(2S,4R)-1-[(2S)-2-acetamido-3,3-dimethylbutanoyl]-4-hydroxypyrrolidin-2-yl]-N-methyl-N-(naphthalen-2-ylmethyl)-1H-imidazole-4-carboxamide] | 1000 to 10000 |
| CC(=O)N[C@H](C(=O)N1C[C@H](O)C[C@H]1c1nc(C(=O)N(C)Cc2cccc3ccccc23)c[nH]1)C(C)(C)C [Example 31, 2-[(2S,4R)-1-[(2S)-2-acetamido-3,3-dimethylbutanoyl]-4-hydroxypyrrolidin-2-yl]-N-methyl-N-(naphthalen-1-ylmethyl)-1H-imidazole-4-carboxamide] | 1000 to 10000 |
| CC(=O)N[C@H](C(=O)N1C[C@H](O)C[C@H]1c1nc(C(=O)N(C)Cc2ccc(-c3scnc3C)cc2)c[nH]1)C(C)(C)C [Example 35, 2-[(2S,4R)-1-[(2S)-2-acetamido-3,3-dimethylbutanoyl]-4-hydroxypyrrolidin-2-yl]-N-methyl-N-[[4-(4-methyl-1,3-thiazol-5-yl)phenyl]methyl]-1H-imidazole-4-carboxamide] | 1000 to 10000 |
| COc1cc(C(C(=O)N2C[C@H](O)C[C@H]2c2nc(C(=O)N(Cc3ccc(-c4scnc4C)cc3)CC(F)(F)F)c[nH]2)C(C)C)on1 (stereo partly drawn) [Example 40, 2-[(2S,4R)-4-hydroxy-1-[2-(3-methoxy-1,2-oxazol-5-yl)-3-methylbutanoyl]pyrrolidin-2-yl]-N-[[4-(4-methyl-1,3-thiazol-5-yl)phenyl]methyl]-N-(22,2-trifluoroethyl)-1H-imidazole-4-carboxamide] | 1000 to 10000 |
| COc1cc(C(C(=O)N2C[C@H](O)C[C@H]2c2ncc(-c3cccc(-c4scnc4C)c3)[nH]2)C(C)C)on1 (stereo partly drawn) [Example 44, 1-[(2S,4R)-4-hydroxy-2-[5-[3-(4-methyl-1,3-thiazol-5-yl)phenyl]-1H-imidazol-2-yl]pyrrolidin-1-yl]-2-(3-methoxy-1,2-oxazol-5-yl)-3-methylbutan-1-one] | < 1000 |
| CC(=O)N[C@H](C(=O)N1C[C@H](O)C[C@H]1c1nc(C(=O)N(C)Cc2ccccn2)c[nH]1)C(C)(C)C [Example 48, 2-[(2S,4R)-1-[(2S)-2-acetamido-3,3-dimethylbutanoyl]-4-hydroxypyrrolidin-2-yl]-N-methyl-N-(pyridin-2-ylmethyl)-1H-imidazole-4-carboxamide] | 1000 to 10000 |
| CC(=O)N[C@H](C(=O)N1C[C@H](O)C[C@H]1c1nc(C(=O)N(C)Cc2ccncc2)c[nH]1)C(C)(C)C [Example 49, 2-[(2S,4R)-1-[(2S)-2-acetamido-3,3-dimethylbutanoyl]-4-hydroxypyrrolidin-2-yl]-N-methyl-N-(pyridin-4-ylmethyl)-1H-imidazole-4-carboxamide] | 1000 to 10000 |
| CC(=O)N[C@H](C(=O)N1C[C@H](O)C[C@H]1c1nc(C(=O)N(C)Cc2ccccc2)c[nH]1)C(C)(C)C [Example 51, 2-[(2S,4R)-1-[(2S)-2-acetamido-3,3-dimethylbutanoyl]-4-hydroxypyrrolidin-2-yl]-N-benzyl-N-methyl-1H-imidazole-4-carboxamide] | 1000 to 10000 |
| CC(=O)N[C@H](C(=O)N1C[C@H](O)C[C@H]1c1nc(C(=O)N(C)Cc2cccnc2)c[nH]1)C(C)(C)C [Example 53, 2-[(2S,4R)-1-[(2S)-2-acetamido-3,3-dimethylbutanoyl]-4-hydroxypyrrolidin-2-yl]-N-methyl-N-(pyridin-3-ylmethyl)-1H-imidazole-4-carboxamide] | 1000 to 10000 |
| COc1cc(C(C(=O)N2C[C@H](O)C[C@H]2c2nc(C(=O)N(C)Cc3ccc(-c4scnc4C)cc3)c[nH]2)C(C)C)on1 (stereo partly drawn) [Example 54, 2-[(2S,4R)-4-hydroxy-1-[2-(3-methoxy-1,2-oxazol-5-yl)-3-methylbutanoyl]pyrrolidin-2-yl]-N-methyl-N-[[4-(4-methyl-1,3-thiazol-5-yl)phenyl]methyl]-1H-imidazole-4-carboxamide] | < 1000 |
| COc1cccc(-c2cnc([C@@H]3C[C@@H](O)CN3C(=O)C(c3cc(OC)no3)C(C)C)[nH]2)c1 (stereo partly drawn) [Example 61, 1-[(2S,4R)-4-hydroxy-2-[5-(3-methoxyphenyl)-1H-imidazol-2-yl]pyrrolidin-1-yl]-2-(3-methoxy-1,2-oxazol-5-yl)-3-methylbutan-1-one] | 1000 to 10000 |
